The record followed here is ChEMBL document CHEMBL1123518, “Synthesis and biological evaluation of irreversible inhibitors of aldose reductase” (J Med Chem, 1986).

Experiment [1] addresses Aldo-keto reductase family 1 member B1 (Rattus norvegicus, UniProt P07943). Description: Compound was tested for 50% inhibitory concentration that was required for irreversible inhibition of aldose reductase.
For experiment [2], the target named is Aldo-keto reductase family 1 member B1 (Rattus norvegicus) (UniProt P07943). Nature of the experiment: Compound was tested for % inhibition against RLAR (aldose reductase)at a concentration of 10 uM, pre-incubated with 100 uM sorbinil.
Experiment [3] has the same target. Description: Compound was tested for % inhibition against RLAR (aldose reductase) at a concentration of 10 micro M.

A word on the IC50: it is the concentration that inhibits the measured activity by half. Read a high IC50 as lower potency. Broadly, the inhibition is the change of the read-out against control, counted positive when it falls. Higher therefore signals a strong effect.

In turn, `COC(=O)CN1C(=O)c2cccc3cc(N=C=S)cc(c23)C1=O` registered an IC50 in experiment [1] of 14 µM.
Same read-out and setting: in the case of `COC(=O)CN1C(=O)c2cccc3cc(N=[N+]=[N-])cc(c23)C1=O` it was 38 µM; in that of `[N-]=[N+]=Nc1cc2c3c(cccc3c1)C(=O)N(CC(=O)O)C2=O`, 3.6 µM.
Turning to `O=C(O)CN1C(=O)c2cccc3cc(N=C=S)cc(c23)C1=O`, the results for the inhibition in experiment [2] and in experiment [3] were 5% and 57%, respectively. In experiment [1], this compound had an IC50 of 0.3 µM.
With `S=C=Nc1ccccc1`, the results for the inhibition in experiment [2] and in experiment [3] were 5% and 34%, respectively.
